# Experimental data published in article PMC11025159 (Journal of Translational Medicine, 2024).
# What was measured:
# [1] = tested on: DHT-induced AGA mice; test: Hair regrowth in DHT-induced AGA mice model (topical, 28 days); type: in vivo, C57BL/6J mice
# Description: (§1) C57BL/6 J mice (male) were obtained from CSIR-IIIM Animal House at 7 weeks of age. We used a DHT-induced AGA mice model for this study. […] At the end of the experiment, skin samples were collected and preserved in 10% neutral buffered formalin for tissue sectioning and staining using haematoxylin and eosin (H&E). The histopathological examinations were performed under the 10× and 40× objectives of light microscope (Magnus, Mx21i).
# Dorsal skin samples from C57BL/6J mice were shaved and collected for histological and molecular analyses on Days 7, 14, 21, and 28. The full-thickness skin tissue was fixed in a 10% neutral buffered formalin solution (Sigma) overnight and subsequently dehydrated for embedding in paraffin. Haematoxylin and eosin (H&E) staining was performed on the skin tissue, and digital photomicrographs were taken from the representative areas using light microscope (Magnus, Mx21i).
# The quantification of anagen initiation was assessed by observing changes in the dorsal skin colour of C57BL/6 mice, a phenomenon closely linked to the onset of the anagen phase. Anagen quantification was done by employing threshold analysis on dorsal skin colouration using ImageJ. The darkening of the skin, attributed to melanogenesis, strongly correlates with the progression of anagen. This analysis is visually depicted as a heatmap using GraphPad Prism 9.5 Software.
# [2] = Body weight, biochemical and haematological parameters in DHT-induced AGA mice (0.5% testosterone then topical treatment); type: in vivo, C57BL/6J mice; conditions: for LYMPH: unit assumed
# Description: The experiments were performed on C57BL/6 J and Athymic nude mice (NU/J Foxn1^nu) of 6–7 weeks of age obtained from Animal House Facility, CSIR-Indian Institute of Integrative Medicine (IIIM), Jammu, India. […] The animals were provided with ad libitum feed (standard pellet diet) and autoclaved RO water throughout the study. The body weight of mice was measured after seven days before treatment.
# as §1
# Every two weeks during the experimental period, mice were anesthetized, and the blood samples were collected into tubes containing heparin sodium to detect the total and differential white blood cells, haemoglobin, red blood cell, platelet count, mean corpuscular haemoglobin, mean corpuscular volume, red blood cell volume, mean platelet volume, and analyzed using an automated haematology analyzer (Model: XT1800i; Make: Sysmex).
# Every two weeks during the experimental period, mice and rats were anesthetized, and blood samples were collected into non-heparinized tubes and then centrifuged at 1000 rpm at 4 °C for 10 min to obtain the serum. The biochemical parameters, including total protein, aspartate aminotransferase, alanine aminotransferase, total protein, albumin, total bilirubin, direct bilirubin, glucose, total cholesterol, triglyceride, low-density lipoprotein, high-density lipoprotein, creatinine, and uric acid, were measured using an automatic biochemical analyzer (Model: EM360; Make: Erba Mannheim).
smiles,measurement,setting,value
"CCS(=O)(=O)N1CC(CC#N)(n2cc(-c3ncnc4[nH]ccc34)cn2)C1 [Baricitinib, baricitinib, reference compound]",H&E skin histopathology finding,"[1]; 0.04mg/kg, Days 7, 14, 21, 28",Minimal degree of epidermal thickening with increased distinct hair follicles
same,hair follicle phase (histopathology),"[1]; skin samples days 7, 14, 21, 28",at least in the anagen IIIc-IV phase
same,entry into the anagen phase,[1]; topical once a day in presence of testosterone,rapid entry into the anagen phase within seven days of treatment
same,ALP,"[2]; Day 21, 0.02 mg/Kg",108 U/L
same,ALT/SGPT,"[2]; Day 21, 0.02 mg/Kg",74 U/L
same,AST/SGOT,"[2]; Day 21, 0.02 mg/Kg",143 U/L
same,Cholesterol,"[2]; Day 21, 0.02 mg/Kg",171 mg/dL
same,Creatine,"[2]; Day 21, 0.02 mg/Kg",0.72 mg/dL
same,HCT,"[2]; Day 21, 0.02 mg/Kg",45%
same,HDL,"[2]; Day 21, 0.02 mg/Kg",105 mg/dL
same,LDL,"[2]; Day 21, 0.02 mg/Kg",101 mg/dL
same,MCHC,"[2]; Day 21, 0.02 mg/Kg",28 g/dL
same,MCV,"[2]; Day 21, 0.02 mg/Kg",52 fL
same,NEUT,"[2]; Day 21, 0.02 mg/Kg",30.5%
same,PLT,"[2]; Day 21, 0.02 mg/Kg",946 103/μl
same,RBC,"[2]; Day 21, 0.02 mg/Kg",8.2 1012/l
same,Total protein,"[2]; Day 21, 0.02 mg/Kg",5.0 g/dL
same,Triglyceride,"[2]; Day 21, 0.02 mg/Kg",98 mg/dL
same,Urea,"[2]; Day 21, 0.02 mg/Kg",69 mg/dL
same,WBC,"[2]; Day 21, 0.02 mg/Kg",4.3 103/μl
same,LYMPH,"[2]; Day 21, 0.02 mg/Kg",67.4%
same,ALP,"[2]; Day 21, 0.04 mg/Kg",99 U/L
same,ALT/SGPT,"[2]; Day 21, 0.04 mg/Kg",64 U/L
same,AST/SGOT,"[2]; Day 21, 0.04 mg/Kg",98 U/L
same,Cholesterol,"[2]; Day 21, 0.04 mg/Kg",171 mg/dL
same,Creatine,"[2]; Day 21, 0.04 mg/Kg",0.69 mg/dL
same,HCT,"[2]; Day 21, 0.04 mg/Kg",43%
same,HDL,"[2]; Day 21, 0.04 mg/Kg",122 mg/dL
same,LDL,"[2]; Day 21, 0.04 mg/Kg",106 mg/dL
same,MCHC,"[2]; Day 21, 0.04 mg/Kg",29 g/dL
same,MCV,"[2]; Day 21, 0.04 mg/Kg",52 fL
same,NEUT,"[2]; Day 21, 0.04 mg/Kg",30.5%
same,PLT,"[2]; Day 21, 0.04 mg/Kg",1082 103/μl
same,RBC,"[2]; Day 21, 0.04 mg/Kg",8.6 1012/l
same,Total protein,"[2]; Day 21, 0.04 mg/Kg",4.9 g/dL
same,Triglyceride,"[2]; Day 21, 0.04 mg/Kg",139 mg/dL
same,Urea,"[2]; Day 21, 0.04 mg/Kg",54 mg/dL
same,WBC,"[2]; Day 21, 0.04 mg/Kg",3.6 103/μl
same,LYMPH,"[2]; Day 21, 0.04 mg/Kg",67.4%
same,ALP,"[2]; Day 21, 0.1mg/Kg",144 U/L
same,ALT/SGPT,"[2]; Day 21, 0.1mg/Kg",92 U/L
same,AST/SGOT,"[2]; Day 21, 0.1mg/Kg",104 U/L
same,Cholesterol,"[2]; Day 21, 0.1mg/Kg",173 mg/dL
same,Creatine,"[2]; Day 21, 0.1mg/Kg",0.48 mg/dL
same,HCT,"[2]; Day 21, 0.1mg/Kg",48%
same,HDL,"[2]; Day 21, 0.1mg/Kg",108 mg/dL
same,LDL,"[2]; Day 21, 0.1mg/Kg",100 mg/dL
same,MCHC,"[2]; Day 21, 0.1mg/Kg",29 g/dL
same,MCV,"[2]; Day 21, 0.1mg/Kg",50 fL
same,NEUT,"[2]; Day 21, 0.1mg/Kg",26.8%
same,PLT,"[2]; Day 21, 0.1mg/Kg",1149 103/μl
same,RBC,"[2]; Day 21, 0.1mg/Kg",9.6 1012/l
same,Total protein,"[2]; Day 21, 0.1mg/Kg",5.0 g/dL
same,Triglyceride,"[2]; Day 21, 0.1mg/Kg",119 mg/dL
same,Urea,"[2]; Day 21, 0.1mg/Kg",51 mg/dL
same,WBC,"[2]; Day 21, 0.1mg/Kg",6.4 103/μl
same,LYMPH,"[2]; Day 21, 0.1mg/Kg",71.3%
same,ALP,"[2]; Day 28, 0.02 mg/Kg",159 U/L
same,ALT/SGPT,"[2]; Day 28, 0.02 mg/Kg",71 U/L
same,AST/SGOT,"[2]; Day 28, 0.02 mg/Kg",129 U/L
same,Cholesterol,"[2]; Day 28, 0.02 mg/Kg",213 mg/dL
same,Creatine,"[2]; Day 28, 0.02 mg/Kg",0.16 mg/dL
same,HCT,"[2]; Day 28, 0.02 mg/Kg",48.0%
same,HDL,"[2]; Day 28, 0.02 mg/Kg",173 mg/dL
same,HGB,"[2]; Day 28, 0.02 mg/Kg",15 g/dL
same,LDL,"[2]; Day 28, 0.02 mg/Kg",98 mg/dL
same,MCHC,"[2]; Day 28, 0.02 mg/Kg",30.0 g/dL
same,MCV,"[2]; Day 28, 0.02 mg/Kg",62 fL
same,PLT,"[2]; Day 28, 0.02 mg/Kg",1724 103/μl
same,RBC,"[2]; Day 28, 0.02 mg/Kg",7.8 106/μl
same,Total protein,"[2]; Day 28, 0.02 mg/Kg",5.8 g/dL
same,Triglyceride,"[2]; Day 28, 0.02 mg/Kg",90 mg/dL
same,Urea,"[2]; Day 28, 0.02 mg/Kg",60 mg/dL
same,WBC,"[2]; Day 28, 0.02 mg/Kg",6.3 103/μl
same,ALP,"[2]; Day 28, 0.04 mg/Kg",174 U/L
same,ALT/SGPT,"[2]; Day 28, 0.04 mg/Kg",88 U/L
same,AST/SGOT,"[2]; Day 28, 0.04 mg/Kg",123 U/L
same,Cholesterol,"[2]; Day 28, 0.04 mg/Kg",182 mg/dL
same,Creatine,"[2]; Day 28, 0.04 mg/Kg",0.11 mg/dL
same,HCT,"[2]; Day 28, 0.04 mg/Kg",48.0%
same,HDL,"[2]; Day 28, 0.04 mg/Kg",143 mg/dL
same,HGB,"[2]; Day 28, 0.04 mg/Kg",14 g/dL
same,LDL,"[2]; Day 28, 0.04 mg/Kg",85 mg/dL
same,MCHC,"[2]; Day 28, 0.04 mg/Kg",29.0 g/dL
same,MCV,"[2]; Day 28, 0.04 mg/Kg",60 fL
same,PLT,"[2]; Day 28, 0.04 mg/Kg",1427 103/μl
same,RBC,"[2]; Day 28, 0.04 mg/Kg",8.0 106/μl
same,Total protein,"[2]; Day 28, 0.04 mg/Kg",6.3 g/dL
same,Triglyceride,"[2]; Day 28, 0.04 mg/Kg",123 mg/dL
same,Urea,"[2]; Day 28, 0.04 mg/Kg",66 mg/dL
same,WBC,"[2]; Day 28, 0.04 mg/Kg",3.1 103/μl
same,ALP,"[2]; Day 28, 0.1mg/Kg",184 U/L
same,ALT/SGPT,"[2]; Day 28, 0.1mg/Kg",74 U/L
same,AST/SGOT,"[2]; Day 28, 0.1mg/Kg",86 U/L
same,Cholesterol,"[2]; Day 28, 0.1mg/Kg",164 mg/dL
same,Creatine,"[2]; Day 28, 0.1mg/Kg",0.13 mg/dL
same,HCT,"[2]; Day 28, 0.1mg/Kg",43.0%
same,HDL,"[2]; Day 28, 0.1mg/Kg",134 mg/dL
same,HGB,"[2]; Day 28, 0.1mg/Kg",14 g/dL
same,LDL,"[2]; Day 28, 0.1mg/Kg",78 mg/dL
same,MCHC,"[2]; Day 28, 0.1mg/Kg",33.0 g/dL
same,MCV,"[2]; Day 28, 0.1mg/Kg",67 fL
same,PLT,"[2]; Day 28, 0.1mg/Kg",1394 103/μl
same,RBC,"[2]; Day 28, 0.1mg/Kg",6.4 106/μl
same,Total protein,"[2]; Day 28, 0.1mg/Kg",6.2 g/dL
same,Triglyceride,"[2]; Day 28, 0.1mg/Kg",72 mg/dL
same,Urea,"[2]; Day 28, 0.1mg/Kg",53 mg/dL
same,WBC,"[2]; Day 28, 0.1mg/Kg",3.9 103/μl
